17 compounds from ChEMBL document CHEMBL4834450, “Design, synthesis and antimicrobial activity of novel 2-aminothiophene containing cyclic and heterocyclic moieties” (2021) can be followed below.

What all share (type): functional
What all share (settings): read-out: DIZ

One test relates to Streptococcus pneumoniae. The experiment in a line: Antibacterial activity against Streptococcus pneumoniae ATCC49619 at 5 ug/ml.
Another test deals with Bacillus subtilis. The experiment in a line: Antibacterial activity against Bacillis subtilis BS-GA28 at 5 ug/ml.
The subject of the next test is Pseudomonas aeruginosa. The experiment in a line: Antibacterial activity against Pseudomonas aeruginosa MTCC441 at 5 ug/ml.
The subject of another test is Escherichia coli. Nature of the test: Antibacterial activity against Escherichia coli MTCC442 at 5 ug/ml.
The test system of a further test is Aspergillus fumigatus. The experiment in a line: Antifungal activity against Aspergillus fumigatus HIC6094 at 5 ug/ml.
Test [1] relates to Syncephalastrum racemosum. Nature of the test: Antifungal activity against Syncephalastrum racemosum RCMB05922 at 5 ug/ml.
A further test has as its system Geotrichum candidum. Nature of the test: Antifungal activity against Geotrichum candidum RCMB05097 at 5 ug/ml.
In the next test the test system is Candida albicans. The experiment in a line: Antifungal activity against Candida albicans MTCC227 at 5 ug/ml.

Molecules are shown by their SMILES.

For `CCOC(=O)c1ccc(-c2sc(Nc3ccccc3)c(C(=O)OCC)c2-c2ccccc2)nc1C`, the zone of inhibition at 5 µg/mL in the test on Streptococcus pneumoniae is 18.2 mm; with Bacillus subtilis, 18.9 mm; in the test with Pseudomonas aeruginosa, 10.8 mm; in the test on Escherichia coli it was 11.1 mm; in the test on Aspergillus fumigatus it was 26.3 mm; in test [1] it was 20.9 mm. Further, the figures for the zone of inhibition at 5 µg/mL in the test with Geotrichum candidum and with Candida albicans were 12.6 mm and 11.2 mm, respectively.
In the case of `CCOC(=O)c1c(Nc2ccccc2)sc(-c2ccnc(S)n2)c1-c1ccccc1`, the zone of inhibition at 5 µg/mL stood at 12.3 mm with Streptococcus pneumoniae; 12.7 mm with Bacillus subtilis; 9.8 mm in the test on Pseudomonas aeruginosa; 11.3 mm in the test with Escherichia coli; 15.7 mm with Aspergillus fumigatus; 16.6 mm in test [1]. Further, the values for the zone of inhibition at 5 µg/mL in the test on Geotrichum candidum and in the test with Candida albicans were 12.6 mm and 12.7 mm, respectively.
On to `CCOC(=O)c1c(Nc2ccccc2)sc(C(=O)/C=C/c2ccc(OC)cc2)c1-c1ccccc1`, for which the zone of inhibition at 5 µg/mL with Streptococcus pneumoniae is 18.9 mm; with Bacillus subtilis, 17.9 mm; with Pseudomonas aeruginosa it was 11.4 mm; in the test on Escherichia coli, 10.2 mm; in the test on Aspergillus fumigatus it was 23.4 mm; in test [1] it was 16.1 mm. Moreover, the values for the zone of inhibition at 5 µg/mL in the test with Geotrichum candidum and with Candida albicans were 10.8 mm and 11.9 mm, respectively.
In the case of `CCOC(=O)c1c(Nc2ccccc2)sc(C(=O)/C=C/c2ccc(Cl)cc2)c1-c1ccccc1`, the zone of inhibition at 5 µg/mL came out at 19.5 mm in the test on Streptococcus pneumoniae; 29.8 mm in the test with Bacillus subtilis; 12.3 mm with Pseudomonas aeruginosa; 17.6 mm in the test with Escherichia coli; 22.3 mm with Aspergillus fumigatus; 16.5 mm in test [1]. Besides, the zone of inhibition at 5 µg/mL stood at 25.8 mm with Geotrichum candidum and 12.3 mm with Candida albicans.
As for `CCOC(=O)c1c(Nc2ccccc2)sc(-c2ccn(-c3ccccc3)n2)c1-c1ccccc1`, the zone of inhibition at 5 µg/mL amounted to 12.3 mm in the test on Streptococcus pneumoniae; 12.7 mm with Bacillus subtilis; 11.6 mm in the test on Pseudomonas aeruginosa; 10.9 mm in the test with Escherichia coli; 15.9 mm in the test on Aspergillus fumigatus; 18.9 mm in test [1]. In addition, the zone of inhibition at 5 µg/mL in the test with Geotrichum candidum worked out at 19.1 mm; with Candida albicans, 15.8 mm.
As to `CCOC(=O)c1c(Nc2ccccc2)sc(C(=O)/C=C/c2cccc(N(C)C)c2)c1-c1ccccc1`, the zone of inhibition at 5 µg/mL amounted to 16.3 mm in the test with Streptococcus pneumoniae; 19.6 mm with Bacillus subtilis; 12.5 mm in the test with Pseudomonas aeruginosa; 14.8 mm in the test on Escherichia coli; 24.3 mm in the test with Aspergillus fumigatus; 24.5 mm in test [1]. Also, the zone of inhibition at 5 µg/mL with Geotrichum candidum came to 25.8 mm; with Candida albicans, 14.3 mm.
With `CCOC(=O)c1c(Nc2ccccc2)sc(-c2ccnc(N)n2)c1-c1ccccc1`, the zone of inhibition at 5 µg/mL in the test with Streptococcus pneumoniae came out at 16.3 mm; in the test on Bacillus subtilis it was 19.1 mm; in the test with Pseudomonas aeruginosa it was 11.4 mm; in the test on Escherichia coli, 10.7 mm; with Aspergillus fumigatus, 18.2 mm; in test [1] it was 13.7 mm. Further, the zone of inhibition at 5 µg/mL was 19.1 mm in the test with Geotrichum candidum and 18.2 mm in the test on Candida albicans.
With `CC1(C)S[C@@H]2[C@H](NC(=O)[C@H](N)c3ccccc3)C(=O)N2[C@H]1C(=O)O` [AMPICILLIN], the zone of inhibition at 5 µg/mL in the test on Streptococcus pneumoniae amounted to 23.8 mm; in the test with Bacillus subtilis, 32.4 mm.
As to `CCOC(=O)c1c(Nc2ccccc2)sc(-c2ccn(-c3ccc(Cl)cc3)n2)c1-c1ccccc1`, the zone of inhibition at 5 µg/mL was 18.2 mm in the test with Streptococcus pneumoniae; 18.9 mm with Bacillus subtilis; 10.8 mm in the test with Pseudomonas aeruginosa; 11.1 mm with Escherichia coli; 26.3 mm in the test on Aspergillus fumigatus; 20.9 mm in test [1]. Besides, the figures for the zone of inhibition at 5 µg/mL with Geotrichum candidum and with Candida albicans were 12.6 mm and 11.2 mm, respectively.
For `CCOC(=O)c1c(Nc2ccccc2)sc(C(=O)/C=C/c2ccc(Cl)c(Cl)c2)c1-c1ccccc1`, the zone of inhibition at 5 µg/mL in the test on Streptococcus pneumoniae stood at 11.3 mm; in the test on Bacillus subtilis, 10.7 mm; with Pseudomonas aeruginosa, 9.7 mm; in the test with Escherichia coli, 8.9 mm; in the test on Aspergillus fumigatus it was 17.7 mm; in test [1], 15.4 mm. Further, the values for the zone of inhibition at 5 µg/mL in the test on Geotrichum candidum and in the test with Candida albicans were 12.9 mm and 13.2 mm, respectively.
Regarding `C[C@@H]1[C@H](O)[C@@H](C)/C=C/C=C/C=C/C=C/C=C/C=C/C=C/[C@H](O[C@@H]2O[C@H](C)[C@@H](O)[C@H](N)[C@@H]2O)C[C@@H]2O[C@](O)(C[C@@H](O)C[C@@H](O)[C@H](O)CC[C@@H](O)C[C@@H](O)CC(=O)O[C@H]1C)C[C@H](O)[C@H]2C(=O)O` [AMPHOTERICIN B], the zone of inhibition at 5 µg/mL stood at 23.7 mm in the test with Aspergillus fumigatus, 19.7 mm in test [1], 28.7 mm in the test on Geotrichum candidum and 25.4 mm in the test with Candida albicans.
Consider `CCOC(=O)c1c(Nc2ccccc2)sc(C(=O)/C=C/c2ccc(O)cc2)c1-c1ccccc1`, for which the zone of inhibition at 5 µg/mL in the test on Streptococcus pneumoniae is 26.7 mm; with Bacillus subtilis it was 21.4 mm; in the test on Pseudomonas aeruginosa it was 18.7 mm; in the test with Escherichia coli, 19.5 mm; in the test on Aspergillus fumigatus, 15.7 mm; in test [1], 11.2 mm. The zone of inhibition at 5 µg/mL was determined as 17.3 mm in the test on Geotrichum candidum and 13.3 mm in the test on Candida albicans.
Take `CCOC(=O)c1c(Nc2ccccc2)sc(C(=O)/C=C/c2ccc([N+](=O)[O-])cc2[N+](=O)[O-])c1-c1ccccc1`: the zone of inhibition at 5 µg/mL was 16.5 mm in the test with Streptococcus pneumoniae; 18.9 mm in the test on Bacillus subtilis; 11.3 mm in the test with Pseudomonas aeruginosa; 9.9 mm in the test on Escherichia coli; 18.9 mm with Aspergillus fumigatus; 19.6 mm in test [1]. Moreover, the zone of inhibition at 5 µg/mL with Geotrichum candidum amounted to 14.8 mm; in the test on Candida albicans it was 13.4 mm.
As for `CCOC(=O)c1c(Nc2ccccc2)sc(C(=O)c2cn(-c3ccc(Cl)cc3)nc2C(C)=O)c1-c1ccccc1`, the zone of inhibition at 5 µg/mL in the test on Streptococcus pneumoniae was 14.6 mm; in the test on Bacillus subtilis it was 14.3 mm; in the test on Pseudomonas aeruginosa it was 10.2 mm; in the test on Escherichia coli, 8.8 mm; with Aspergillus fumigatus it was 16.3 mm; in test [1] it was 14.8 mm. The figures for the zone of inhibition at 5 µg/mL in the test with Geotrichum candidum and in the test with Candida albicans were 15.3 mm and 14.3 mm, respectively.
On to `CCOC(=O)c1c(Nc2ccccc2)sc(C(=O)/C=C\Nc2ccc([N+](=O)[O-])cc2)c1-c1ccccc1`, for which the zone of inhibition at 5 µg/mL was 19.5 mm with Streptococcus pneumoniae; 29.8 mm in the test with Bacillus subtilis; 12.3 mm in the test with Pseudomonas aeruginosa; 18.8 mm with Escherichia coli; 12.6 mm in the test on Aspergillus fumigatus; 16.5 mm in test [1]. For the same compound, the zone of inhibition at 5 µg/mL with Geotrichum candidum amounted to 25.8 mm; with Candida albicans, 10.9 mm.
In the case of `CCOC(=O)c1c(Nc2ccccc2)sc(C(=O)c2cn(-c3ccc(C)cc3)nc2C(C)=O)c1-c1ccccc1`, the zone of inhibition at 5 µg/mL in the test with Streptococcus pneumoniae is 12.3 mm; with Bacillus subtilis, 12.7 mm; with Pseudomonas aeruginosa, 9.8 mm; in the test on Escherichia coli, 11.3 mm; with Aspergillus fumigatus, 15.7 mm; in test [1], 16.6 mm. Further, the values for the zone of inhibition at 5 µg/mL with Geotrichum candidum and in the test with Candida albicans were 12.6 mm and 12.7 mm, respectively.
As to `CCOC(=O)c1c(Nc2ccccc2)sc(-c2ccnc(O)n2)c1-c1ccccc1`, the zone of inhibition at 5 µg/mL turned out to be 16.3 mm in the test on Streptococcus pneumoniae; 19.1 mm in the test with Bacillus subtilis; 11.4 mm with Pseudomonas aeruginosa; 10.7 mm with Escherichia coli; 18.2 mm with Aspergillus fumigatus; 13.7 mm in test [1]. Further, the zone of inhibition at 5 µg/mL in the test on Geotrichum candidum was 19.1 mm; in the test with Candida albicans, 18.2 mm.
